This is an account of results in patent publication US20240108580A1, “DECOQUINATE LIPOSOME, PREPARATION METHOD THEREFOR AND USE THEREOF” (CAS LAMVAC (GUANGZHOU) BIOMEDICAL TECHNOLOGY CO.,LTD., priority 2019, published 2024).

Like-named read-outs stand apart in the source and are kept apart here.

The test system of series [1] is P. falciparum 3D7. As to the kind of experiment: In-vitro inhibition potency against Plasmodium falciparum, 72 hours, nucleic acid dye. In kind it is cell-based. The protocol: (§1) The volume was filled up to 1 L with ultrapure water, the pH adjusted to 7.2, subjected to sterilized filtration by using a 0.22 μm filtration membrane, and stored at 4° C. to obtain a complete culture medium; the incomplete medium was composed of 10.43 g of 1640 dry powder (GIBCO, 31800022), 5.96 g of Hepes, 2 g of sodium bicarbonate, 0.292 g of L-glutamine, 3.96 g of glucose, […] of hypoxanthine and 2.5 mg of gentamicin, prepared by the same method as for the complete culture medium. • (2) Drugs and formulations: pure decoquinate was dissolved in DMSO as a stock solution, chloroquine was dissolved in PBS, and artemisinin was dissolved in DMSO and then diluted with PBS. […] Before the experiment, all the above dissolved drug solutions were then diluted to series of 10 gradient concentrations with the incomplete medium. • (3) Culture and assay method: Plasmodium falciparum was cultured in the complete culture medium, and human red blood cells (RBC) were preserved in the incomplete culture medium. […] The culture was incubated at 37° C. in 5% CO2 for 72 hours, then nucleic acid dye was added, and the […] measured in a microplate reader. The half-maximal inhibitory concentration (IC50) of drugs was calculated with Graph Pad software, that is, the concentration when the inhibition rate of antimalarial drugs to P. falciparum reached 50% was calculated.

The subject of series [2] is P. falciparum Dd2. The series is described as above. Type of series: cell-based. The protocol:
as §1

The conditions of series [3]: cited from earlier work.
Setting [4] is: 3D7, chloroquine-sensitive strain, liposome values are decoquinate concentrations, read-out: IC50 P. falciparum 3d7 Mean ± S.D.
The mark [5] stands for this setting: DD2, multidrug-resistant (including chloroquine) strain, liposome values are decoquinate concentrations, read-out: IC50 P. falciparum Dd2 Mean ± S.D.

As to `CCN(CC)CCCC(C)Nc1ccnc2cc(Cl)ccc12` (centres unmarked) [Chloroquine, chloroquine], the IC50 in series [1] (3D7, read-out: IC50 P. falciparum 3d7 Mean ± S.D.) was determined as 23.75 ± 0.06 nM; in series [2] (DD2, read-out: IC50 P. falciparum Dd2 Mean ± S.D.), 185 ± 16.2 nM.

With `C[C@@H]1CC[C@H]2[C@@H](C)C(=O)O[C@@H]3O[C@@]4(C)CC[C@@H]1[C@]32OO4` [Artemisinin, artemisinin], the IC50 came to 16.4 ± 5.8 nM in series [1] (setting [4]) and 18.5 ± 0.5 nM in series [2] (setting [5]).

Consider `CCCCCCCCCCOc1cc2c(O)c(C(=O)OCC)cnc2cc1OCC` [Pure DQ, ethyl 6-decyloxy-7-ethoxy-4-hydroxyquinoline-3-carboxylate], for which the IC50 in series [1] (setting [4]) stood at 1.63 ± 0.13 nM; in series [2] (setting [5]) it was 1.57 ± 0.49 nM. Besides, the Solubility in ethanol entry in series [3] (ethanol) was “slightly soluble”. Moreover, the Solubility in water result in series [3] (water) is given as “practically insoluble”.
